In US11098040B2, “Compounds and methods of use” (Ferro Therapeutics, Inc., priority 2018, dated 2021):
pIC50: −log10 of the molar value. Where two headings read alike, the source gives them in different places.

Tests used:
[1] = Whole blood stability, human; type: in vitro ADME
Description: (§1) The results of the assay on stability in blood and IC50 values for pancreatic cancer cell line KP4 are given below in Table 24.

[2] = Whole blood stability, mouse; type: in vitro ADME
Description: as §1

KP4 = experiment: Cell viability assay (CellTiter Glo), pancreatic ductal adenocarcinoma KP4; type: cell-based, human; conditions: pancreatic cancer cell line KP4, 96 hours, CellTiter Glo, read-out: IC50 μM KP4
How it was run: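 KP4 cells seeded at 1,000–10,000 per well, treated 96 h with 9-point 3-fold dilutions from 30 μM top (4.6 nM–30 μM, duplicates; ≤0.25% DMSO). Viability by CellTiter Glo luminescence; % inhibition relative to DMSO-only wells, giving IC50, relative IC50 or % top inhibition.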

SJSA-1 = experiment: Cell proliferation (Alamar Blue) assay, SJSA-1 osteosarcoma, with/without ferrostatin; type: cell-based, human; conditions: Homo sapiens, read-out: IC50
Description: Cell viability assay was performed to assess the potency of the compounds in human cancer cell lines 786-O (renal cell carcinoma) and SJSA-1 (osteosarcoma). Additional cell lines, such as those described above in Example 4 as well as various others, e.g., pancreatic cancer cell lines (Panc 02.13, BxPC-3, Panc 12, Panc 02.03, Panc 6.03, PSN-1, HPAC, and Capan-1) and prostate cancer cell lines (PC-3, DU145, 22Rv1, NCI-H660, BPH1, LNCaP, BM-1604, and MDA PCa 2b), were tested for select compounds as shown in Table 25.
Cells (SJSA-1, 786-O and A431) were seeded (5000 cells/100 μL/well) in 96-well tissue culture plate and incubated at 37° C./5% CO2 for 16-24 hours. The cells were then treated with compounds (25 μL of 5×). The compound concentrations were 10-0.0005 μM prepared in 3-fold serial dilutions with final DMSO concentration of 1%. The plates were then incubated for 24 h at 37° C./5% CO2 in a moist environment. Then Alamar Blue™ reagent (final concentration 1×-12.5 μL) was added to each well and incubated for 1.5 hours at 37° C./5% CO2. The plates were read on fluorescence reader at 540 nm excitation and 590 nm emission wavelengths. The IC50 values were subsequently determined using a sigmoidal dose-response curve (variable slope) in GraphPad Prism® 5 software.
Studies have shown that lipophilic antioxidants, such as ferrostatin, can rescue cells from GPX4 inhibition-induced ferroptosis. For instance, mesenchymal state GPX4-knockout cells can survive in the presence of ferrostatin, however, when the supply of ferrostatin is terminated, these cells undergo ferroptosis (see, e.g., Viswanathan et al., Nature 547:453-7, 2017). […] Accordingly, the ability of a molecule to induce ferroptotic cancer cell death, and that such ability is admonished by the addition of ferrostatin, is clear indication that the molecule is an GPX4 inhibitor.

| Compound | Whole Blood Stability % Remaining at 37° C. Human ([1]; 0 min) [%] | Whole Blood Stability % Remaining at 37° C. Human ([1]; 30 min) [%] | Whole Blood Stability % Remaining at 37° C. Human ([1]; 60 min) [%] | Whole Blood Stability % Remaining at 37° C. Mouse ([2]; 0 min) [%] | Whole Blood Stability % Remaining at 37° C. Mouse ([2]; 30 min) [%] | Whole Blood Stability % Remaining at 37° C. Mouse ([2]; 60 min) [%] | IC50 (KP4; Homo sapiens, KP-4, 96 h) [µM] | pIC50 (SJSA-1; SJSA-1, Cell Line SJSA-1) | pIC50 (SJSA-1; Cell Line SJSA-1) | IC50 (KP4) [µM] |
| --- | --- | --- | --- | --- | --- | --- | --- | --- | --- | --- |
| C[C@H]1Cc2c([nH]c3ccccc23)[C@H](c2ccc(C(=O)N[C@]34CC5C[C@H](C[C@H](C5)C3)C4)cc2)N1C(=O)CCl [Compound 102] | 100.0 | 96.3 | 75.6 | 100.0 | 87.2 | 90.1 | < 0.01 |  |  |  |
| C[C@H]1Cc2c([nH]c3ccccc23)[C@H](c2ccc(N3CCOCC3)cc2)N1C(=O)CCl [Compound 103, 2-chloro-1-((1S,3S)-3-methyl-1-(4-morpholinophenyl)-1,3,4,9-tetrahydro-2H-pyrido[3,4-b]indol-2-yl)ethan-1-one] | 100.0 | 98.4 | 75.2 | 100.0 | 87.1 | 56.6 | < 0.01 |  |  |  |
| C[C@H]1Cc2c([nH]c3ccccc23)[C@H](c2ccc(C3CCCC3)cc2)N1C(=O)CCl [Compound 109] | 100.0 | 96.1 | 68.1 | 100.0 | 79.2 | 87.7 | < 0.01 |  |  |  |
| C[C@H]1Cc2c([nH]c3ccccc23)[C@H](c2ccc(C3CCCCC3)cc2)N1C(=O)CCl [Compound 110] | 100.0 | 68.3 | 51.7 | 100.0 | 127.4 | 111.0 | < 0.01 |  |  |  |
| C[C@H]1Cc2c([nH]c3ccccc23)[C@@H](c2ccc(C(=O)NC34CC(C3)C4)cc2)N1C(=O)CCl [Compound 111] | 100.0 | 96.1 | 68.1 | 100.0 | 79.2 | 87.7 | 0.5 to 1 |  |  |  |
| C[C@H]1Cc2c([nH]c3ccccc23)[C@H](c2ccc(C3CCOCC3)cc2)N1C(=O)CCl [Compound 112] | 100.0 | 58.3 | 44.6 | 100.0 | 68.7 | 69.3 | < 0.01 |  |  |  |
| COC(=O)c1ccc([C@H]2c3[nH]c4ccc(OC)cc4c3C[C@H](C)N2C(=O)CCl)cc1 [Compound 113] | 100.0 | 85.1 | 92.7 | 100.0 | 89.5 | 2.4 | < 0.01 |  |  |  |
| C[C@H]1Cc2c([nH]c3ccc(F)cc23)[C@H](c2ccc(N3CCOCC3)cc2)N1C(=O)CCl [Compound 114] | 100.0 | 88.1 | 50.8 | 100.0 | 59.3 | 0.0 | < 0.01 |  |  |  |
| C[C@H]1Cc2c([nH]c3ccc(C#N)cc23)[C@H](c2ccc(N3CCOCC3)cc2)N1C(=O)CCl [Compound 115] | 100.0 | 72.9 | 44.0 | 100.0 | 34.2 | 0.0 | < 0.01 |  |  |  |
| C[C@H]1Cc2c([nH]c3ccccc23)[C@H](c2ccc(NCC3CC3)cc2)N1C(=O)CCl [Compound 116] | 100.0 | 79.2 | 62.0 | 100.0 | 82.6 | 67.1 | 0.1 to 0.5 |  |  |  |
| CCC[C@H]1Cc2c([nH]c3ccccc23)[C@H](c2ccc(N3CCOCC3)cc2)N1C(=O)CCl [Compound 118] | 100.0 | 100.2 | 68.8 | 100.0 | 60.7 | 0.0 | < 0.01 |  |  |  |
| CC#CC(=O)N1[C@@H](c2ccc(N3CCOCC3)cc2)c2[nH]c3ccccc3c2C[C@@H]1C [Compound 224] |  |  |  |  |  |  |  | < 5.52 |  |  |
| C[C@H]1Cc2c([nH]c3ccccc23)[C@H](c2ccc(N3CCOCC3)cc2)N1C(=O)CF [Compound 227] |  |  |  |  |  |  |  |  | < 5.52 |  |
| COC(=O)c1ccc([C@H]2c3sc4ccccc4c3C[C@H](C(=O)OC)N2C(=O)CCl)cc1 [Example 55c] | 100.0 | 46.0 | 27.5 | 100.0 | 0.0 | 0.0 | 0.01 to 0.1 |  |  |  |
| COC(=O)c1ccc([C@@H]2c3sc4ccccc4c3C[C@H](C(=O)OC)N2C(=O)CCl)cc1 [Example 55d] | 100.0 | 60.8 | 41.2 | 100.0 | 0.0 | 0.0 | 0.1 to 0.5 |  |  |  |
| CC(C)(C)OC(=O)c1ccc([C@H]2c3[nH]c4ccccc4c3C[C@H](CO)N2C(=O)CCl)cc1 [Example 63a] | 100.0 | 35.0 | 13.2 | 100.0 | 4.5 | 0.0 | > 1 |  |  |  |
| CC(C)(C)OC(=O)c1ccc([C@@H]2c3[nH]c4ccccc4c3C[C@H](CO)N2C(=O)CCl)cc1 [Example 64a] | 100.0 | 38.0 | 15.5 | 100.0 | 8.3 | 3.2 | > 1 |  |  |  |
| COC(=O)c1ccc([C@@H]2c3[nH]c4ccccc4c3C[C@H](C)N2C(=O)CCl)cc1 [Example 77a] | 100.0 | 47.5 | 14.8 | 100.0 | 0.0 | 0.0 | 0.5 to 1 |  |  |  |
| COC(=O)c1ccc([C@H]2c3[nH]c4ccccc4c3C[C@H](C(=O)OC)N2C(=O)CCl)cc1 [K601 (RSL3), reference compound] | 100.0 | 60.8 | 42.5 | 100.0 | 0.2 | 0.2 | < 0.01 |  |  |  |
| (1S,3R)-RSL3-alkyne [Compound BX, reference compound] | 100.0 | 70.1 | 51.1 | 100.0 | 0.0 | 0.0 |  |  |  | < 0.01 |
